Here are results for four molecules from ChEMBL document CHEMBL4000203, “Green synthesis and anticancer potential of chalcone linked-1,2,3-triazoles” (Eur J Med Chem, 2017).

The structures appear in SMILES notation.

The test system of series [1] is MCF7. Nature of the series: Cytotoxicity against human MCF7 cells assessed as growth inhibition at 10 uM measured after 48 hrs by MTT assay relative to control. The class given is functional. The settings on record: MCF7, 48 h, read-out: GI.
The subject of series [2] is MIA PaCa-2. Nature of the series: Cytotoxicity against human MIAPaCa2 cells assessed as growth inhibition at 10 uM measured after 48 hrs by MTT assay relative to control. The conditions noted are these: MIA PaCa-2, 48 h, read-out: GI. The class given is functional.
Series [3] concerns A549. In words: Cytotoxicity against human A549 cells assessed as growth inhibition at 10 uM measured after 48 hrs by MTT assay relative to control. The class given is functional. The settings on record: A549, 48 h, read-out: GI. For orientation: Tetrazolium assays rely on reduction of a dye to a coloured formazan, in cell work by metabolically active cells.
Series [4] concerns HepG2. In words: Cytotoxicity against human HepG2 cells assessed as growth inhibition at 10 uM measured after 48 hrs by MTT assay relative to control. The class given is functional. The settings on record: HepG2, 48 h, read-out: GI.
Series [5] can be described thus: Cytotoxicity against human FR2 cells assessed as growth inhibition at 10 uM measured after 48 hrs by MTT assay relative to control. The class given is cell-based. The settings on record: FR2 cells, read-out: GI.
The subject of series [6] is MCF7. In words: Cytotoxicity against human MCF7 cells measured after 48 hrs by MTT assay. The class given is functional, cell-based. The conditions noted are these: MCF7, 48 h.
Series [7] has as its system MIA PaCa-2. Nature of the series: Cytotoxicity against human MIAPaCa2 cells measured after 48 hrs by MTT assay. The class given is functional, cell-based. The settings on record: MIA PaCa-2, 48 h.
Series [8] deals with A549. In words: Cytotoxicity against human A549 cells measured after 48 hrs by MTT assay. The class given is functional, cell-based. The conditions noted are these: A549, 48 h.
Series [9] deals with HepG2. In words: Cytotoxicity against human HepG2 cells measured after 48 hrs by MTT assay. The conditions noted are these: HepG2, 48 h. The class given is functional, cell-based.
Series [10] is described as follows: Cytotoxicity against human FR2 cells measured after 48 hrs by MTT assay. The conditions noted are these: FR2, 48 h. The class given is cell-based.
Series [11] can be described thus: Selectivity index, ratio of IC50 for human FR2 cells to IC50 for human MCF7 cells. The class given is functional.
Series [12] is described as follows: Selectivity index, ratio of IC50 for human FR2 cells to IC50 for human MIAPaCa2 cells. The class given is functional.
Series [13] concerns MIA PaCa-2. Nature of the series: Cell cycle arrest in human MIAPaCa2 cells assessed as apoptotic cells at 10 uM measured after 24 hrs by propidium iodide staining based flow cytometric analysis (reference value: 1%). The class given is functional. (Flow cytometry measures light scatter and fluorescence of single cells or particles in a stream.)
For series [14], the system named is MIA PaCa-2. In words: Cell cycle arrest in human MIAPaCa2 cells assessed as accumulation at G1 phase at 10 uM measured after 24 hrs by propidium iodide staining based flow cytometric analysis (reference value: 59%). The class given is functional.
In series [15] the test system is MIA PaCa-2. In words: Cell cycle arrest in human MIAPaCa2 cells assessed as accumulation at G2 phase at 10 uM measured after 24 hrs by propidium iodide staining based flow cytometric analysis (reference value: 5%). The class given is functional.
Series [16] relates to MIA PaCa-2. Nature of the series: Cell cycle arrest in human MIAPaCa2 cells assessed as accumulation at S phase at 10 uM measured after 24 hrs by propidium iodide staining based flow cytometric analysis (reference value: 36%). The class given is functional.
Series [17] relates to MIA PaCa-2. In words: Cell cycle arrest in human MIAPaCa2 cells assessed as apoptotic cells at 30 uM measured after 24 hrs by propidium iodide staining based flow cytometric analysis (reference value: 1%). The class given is functional.
For series [18], the system named is MIA PaCa-2. Nature of the series: Cell cycle arrest in human MIAPaCa2 cells assessed as accumulation at G1 phase at 30 uM measured after 24 hrs by propidium iodide staining based flow cytometric analysis (reference value: 59%). The class given is functional.
Series [19] relates to MIA PaCa-2. Nature of the series: Cell cycle arrest in human MIAPaCa2 cells assessed as accumulation at G2 phase at 30 uM measured after 24 hrs by propidium iodide staining based flow cytometric analysis (reference value: 5%). The class given is functional.
The subject of series [20] is MIA PaCa-2. Nature of the series: Cell cycle arrest in human MIAPaCa2 cells assessed as accumulation at S phase at 30 uM measured after 24 hrs by propidium iodide staining based flow cytometric analysis (reference value: 36%). The class given is functional.
The subject of series [21] is MIA PaCa-2. In words: Cell cycle arrest in human MIAPaCa2 cells assessed as apoptotic cells at 50 uM measured after 24 hrs by propidium iodide staining based flow cytometric analysis (reference value: 1%). The class given is functional.
For series [22], the system named is MIA PaCa-2. Nature of the series: Cell cycle arrest in human MIAPaCa2 cells assessed as accumulation at G1 phase at 50 uM measured after 24 hrs by propidium iodide staining based flow cytometric analysis (reference value: 59%). The class given is functional.
Series [23] concerns MIA PaCa-2. In words: Cell cycle arrest in human MIAPaCa2 cells assessed as accumulation at G2 phase at 50 uM measured after 24 hrs by propidium iodide staining based flow cytometric analysis (reference value: 5%). The class given is functional.
Series [24] relates to MIA PaCa-2. In words: Cell cycle arrest in human MIAPaCa2 cells assessed as accumulation at S phase at 50 uM measured after 24 hrs by propidium iodide staining based flow cytometric analysis (reference value: 36%). The class given is functional.
Series [25] relates to MIA PaCa-2. In words: Cell cycle arrest in human MIAPaCa2 cells assessed as apoptotic cells measured after 24 hrs by propidium iodide staining based flow cytometric analysis. The class given is functional.
In series [26] the test system is MIA PaCa-2. Nature of the series: Induction of mitochondrial membrane depolarization in human MIAPaCa2 cells measured after 24 hrs by […] staining based flow cytometric analysis. The class given is functional, cell-based.
The subject of series [27] is MIA PaCa-2. In words: Induction of mitochondrial membrane depolarization in human MIAPaCa2 cells at 10 uM measured after 24 hrs by […] staining flow cytometric analysis (reference value: 2%). The class given is functional.
The subject of series [28] is MIA PaCa-2. In words: Induction of mitochondrial membrane depolarization in human MIAPaCa2 cells at 30 uM measured after 24 hrs by […] staining flow cytometric analysis (reference value: 2%). The class given is functional.
The test system of series [29] is MIA PaCa-2. In words: Induction of mitochondrial membrane depolarization in human MIAPaCa2 cells at 50 uM measured after 24 hrs by […] staining flow cytometric analysis (reference value: 2%). The class given is functional.
The test system of series [30] is MIA PaCa-2. In words: Induction of apoptosis in human MIAPaCa2 cells assessed as activation of procaspase-9 measured after 24 hrs by Western blot analysis. The class given is functional, cell-based. A general note: In western blotting, separated proteins are transferred to a membrane and probed.
Series [31] deals with MIA PaCa-2. Nature of the series: Induction of apoptosis in human MIAPaCa2 cells assessed as activation of procaspase-8 measured after 24 hrs by Western blot analysis. The class given is functional, cell-based.
Series [32] has as its system MIA PaCa-2. In words: Induction of apoptosis in human MIAPaCa2 cells assessed as increase in casapase-3 cleavage measured after 24 hrs by Western blot analysis. The class given is functional, cell-based.
The test system of series [33] is MIA PaCa-2. Nature of the series: Induction of apoptosis in human MIAPaCa2 cells assessed as increase in PARP-1 cleavage measured after 24 hrs by Western blot analysis. The class given is functional, cell-based.

As usually defined, the IC50 is the concentration at which inhibition is half-maximal. Higher therefore signals a need for much substance.

In the case of `COc1ccc(C(=O)/C=C/c2ccc(OCc3cn(Cc4ccc(Br)cc4)nn3)cc2)cc1`, the inhibition of growth at 10 µM in series [1] is 53%; in series [2] it was 56%; in series [3] it was 50%; in series [4], 59%. Moreover, in series [5], the inhibition at 48 h, 10 µM turned out to be 2%. Further, the IC50 in [6] was 9 µM; in series [7], 8 µM; in [8], 10 µM; in series [9] it was 8 µM; in series [10] it was greater than 100 µM.

`COc1ccc(C(=O)/C=C/c2ccc(OCc3cn(Cc4cccc(Br)c4)nn3)cc2)cc1`: the inhibition of growth at 10 µM in series [1] was 45%; in series [2], 50%; in series [3], 47%; in [4] it was 27%. In addition, the inhibition at 48 h, 10 µM in series [5] came out at 3%. Also, the IC50 in series [6] is 20 µM; in series [7], 10 µM; in series [8], 15 µM; in series [9] it was 60 µM; in series [10], greater than 100 µM.

Turning to `COc1ccc(C(=O)/C=C/c2ccc(OCc3cn(Cc4ccccc4)nn3)cc2)cc1`, the inhibition of growth at 10 µM amounted to 70% in [1], 68% in series [2], 44% in series [3] and 51% in series [4]. For the same molecule, the inhibition at 48 h, 10 µM in series [5] turned out to be 6%. Moreover, the 50% inhibitory concentration (IC50) in [6] is 5 µM; in series [7] it was 4 µM; in series [8], 11 µM; in [9], 9 µM; in series [10] it was greater than 100 µM. Moreover, the “Ratio IC50” value in series [11] is given as greater than 20; in series [12], 25. Further, the Activity was found to be 2% in [13]; 36% in series [14]; 11% in series [15]; 53% in [16]; 6% in series [17]; 52% in series [18]. Further, the Activity in series [19] was determined as 14%; in series [20], 44%; in [21], 11%; in series [22], 41%; in series [23], 8%; in series [24], 51%. For the same molecule, the Activity result is “Dose-dependent effect” in series [25]; “Dose-dependent effect” in series [26]; 4% in series [27]; 8% in [28]; 11% in series [29]; “Dose-dependent effect” in series [30]. For the same molecule, the Activity entry in series [31], in series [32] and in [33] was “Dose-dependent effect” in each case.

`Oc1cccc(-c2nc(N3CCOCC3)c3oc4ncccc4c3n2)c1` [PI-103]: the inhibition of growth at 10 µM in series [1] stood at 97%; in [2] it was 93%; in [3], 89%; in series [4] it was 65%. Also, the inhibition at 48 h, 10 µM in series [5] is 25%. The half-inhibitory concentration (IC50) in series [6] is 3 µM; in series [7] it was 6 µM; in series [8] it was 4 µM; in series [9] it was 8 µM; in series [10], greater than 50 µM.
